Laboratory results reported in patent US9169254B2, “Spiroimidazolone derivative” (Chugai Seiyaku Kabushiki Kaisha, priority 2009, dated 2015).

Biological target: T1, human PTH1 receptor (Homo sapiens, UniProt Q03431)
T1 sequence (Q03431 27-593): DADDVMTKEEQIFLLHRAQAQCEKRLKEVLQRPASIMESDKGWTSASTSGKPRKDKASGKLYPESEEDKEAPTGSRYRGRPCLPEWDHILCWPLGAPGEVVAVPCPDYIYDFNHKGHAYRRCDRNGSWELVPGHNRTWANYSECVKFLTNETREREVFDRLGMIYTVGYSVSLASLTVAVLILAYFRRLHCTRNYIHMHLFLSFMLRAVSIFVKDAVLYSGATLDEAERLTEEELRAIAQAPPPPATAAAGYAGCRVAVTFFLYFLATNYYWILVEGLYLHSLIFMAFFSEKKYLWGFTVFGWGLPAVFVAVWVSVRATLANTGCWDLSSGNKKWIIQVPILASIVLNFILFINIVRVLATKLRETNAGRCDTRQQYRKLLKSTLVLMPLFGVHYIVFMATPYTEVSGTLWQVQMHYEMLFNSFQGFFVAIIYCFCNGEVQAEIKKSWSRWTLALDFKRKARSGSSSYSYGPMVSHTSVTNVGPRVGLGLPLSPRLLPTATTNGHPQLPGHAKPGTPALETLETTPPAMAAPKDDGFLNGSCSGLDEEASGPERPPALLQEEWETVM
Assay: In vitro cAMP signal activity in HKRK-B7 cells (LLC-PK1 cells overexpressing the human PTH1 receptor)
Assay type: cell-based
Conditions: HKRK-B7 cells; compound at 1×10^−3 M; cAMP produced as percentage of that produced by hPTH(1-34) at 100 nM

| SMILES | cAMP production activity (%) |
| --- | --- |
| Cc1cc(N(C)C(=O)CN(C)C)cc(C)c1/C=C/S(=O)(=O)N1CCC2(CC1)N=C(c1cccc(OC(F)(F)F)c1)NC2=O [Compound 608, 2-dimethylamino-N-(3,5-dimethyl-4-{(E)-2-[4-oxo-2-(3-trifluoromethoxy-phenyl)-1,3,8-triaza-spiro[4.5]dec-1-ene-8-sulfonyl]-vinyl}-phenyl)-N-methyl-acetamide] | 20% |
| Cc1cc(N(CCN(C)C)S(C)(=O)=O)cc(C)c1/C=C/S(=O)(=O)N1CCC2(CC1)N=C(c1cccc(OC(F)(F)F)c1)NC2=O [Compound 609, N-(2-dimethylamino-ethyl)-N-(3,5-dimethyl-4-{(E)-2-[4-oxo-2-(3-trifluoromethoxy-phenyl)-1,3,8-triaza-spiro[4.5]dec-1-ene-8-sulfonyl]-vinyl}-phenyl)-methane sulfonamide] | 46% |
| CC(=O)NC[C@H]1CCC(=O)N1c1cc(C)c(/C=C/S(=O)(=O)N2CCC3(CC2)N=C(c2cccc(OC(F)(F)F)c2)NC3=O)c(C)c1 [Compound 610, N—[(R)-1-(3,5-dimethyl-4-{(E)-2-[4-oxo-2-(3-trifluoromethoxy-phenyl)-1,3,8-triaza-spiro[4.5]dec-1-ene-8-sulfonyl]-vinyl}-phenyl)-5-oxo-pyrrolidin-2-ylmethyl]-acetamide] | 85% |
| Cc1cc(N2C(=O)CC[C@@H]2CN(C)C)cc(C)c1/C=C/S(=O)(=O)N1CCC2(CC1)N=C(c1cccc(OC(F)(F)F)c1)NC2=O [Compound 611, 8-{(E)-2-[4-((R)-2-dimethylaminomethyl-5-oxo-pyrrolidin-1-yl)-2,6-dimethyl-phenyl]-ethenesulfonyl}-2-(3-trifluoromethoxy-phenyl)-1,3,8-triaza-spiro[4.5]dec-1-en-4-one] | 82% |
| CC(=O)N(CC#N)c1ccc(/C=C/S(=O)(=O)N2CCC3(CC2)N=C(c2cccc(OC(F)(F)F)c2)NC3=O)c(C)c1 [Compound 612, N-cyanomethyl-N-(3-methyl-4-{(E)-2-[4-oxo-2-(3-trifluoromethoxy-phenyl)-1,3,8-triaza-spiro[4.5]dec-1-ene-8-sulfonyl]-vinyl}-phenyl)-acetamide] | 62% |
| CC(=O)N(CC(F)(F)F)c1ccc(/C=C/S(=O)(=O)N2CCC3(CC2)N=C(c2cccc(OC(F)(F)F)c2)NC3=O)c(C)c1 [Compound 613, N-(3-methyl-4-{(E)-2-[4-oxo-2-(3-trifluoromethoxy-phenyl)-1,3,8-triaza-spiro[4.5]dec-1-ene-8-sulfonyl]-vinyl}-phenyl)-N-(2,2,2-trifluoro-ethyl)-acetamide] | 44% |
| Cc1cc(N2C(=O)N(C)C(C)(C)C2=O)cc(C)c1/C=C/S(=O)(=O)N1CCC2(CC1)N=C(c1cccc(OC(F)(F)F)c1)NC2=O [Compound 614, 3-(3,5-dimethyl-4-{(E)-2-[4-oxo-2-(3-trifluoromethoxy-phenyl)-1,3,8-triaza-spiro[4.5]dec-1-ene-8-sulfonyl]-vinyl}-phenyl)-1,5,5-trimethyl-imidazolidine-2,4-dione] | 25% |
| Cc1cc(N2C(=O)NC(C)(C)C2=O)cc(C)c1/C=C/S(=O)(=O)N1CCC2(CC1)N=C(c1cccc(OC(F)(F)F)c1)NC2=O [Compound 615, 3-(3,5-dimethyl-4-{(E)-2-[4-oxo-2-(3-trifluoromethoxy-phenyl)-1,3,8-triaza-spiro[4.5]dec-1-ene-8-sulfonyl]-vinyl}-phenyl)-5,5-dimethyl-imidazolidine-2,4-dione] | 46% |
| CC(=O)N(c1cc(C)c(/C=C/S(=O)(=O)N2CCC3(CC2)N=C(c2cccc(OC(F)(F)F)c2)NC3=O)c(C)c1)C1CCOCC1 [Compound 616, N-(3,5-dimethyl-4-{(E)-2-[4-oxo-2-(3-trifluoromethoxy-phenyl)-1,3,8-triaza-spiro[4.5]dec-1-ene-8-sulfonyl]-vinyl}-phenyl)-N-(tetrahydro-pyran-4-yl)-acetamide] | 94% |
| Cc1cc(N2CCOCC2=O)ccc1/C=C/S(=O)(=O)N1CCC2(CC1)N=C(c1cccc(OC(F)(F)F)c1)NC2=O [Compound 617, 8-{(E)-2-[2-methyl-4-(3-oxo-morpholin-4-yl)-phenyl]-ethenesulfonyl}-2-(3-trifluoromethoxy-phenyl)-1,3,8-triaza-spiro[4.5]dec-1-en-4-one] | 96% |
| Cc1cc(N2C(=O)CNC2=O)ccc1/C=C/S(=O)(=O)N1CCC2(CC1)N=C(c1cccc(OC(F)(F)F)c1)NC2=O [Compound 618, 3-(3-methyl-4-{(E)-2-[4-oxo-2-(3-trifluoromethoxy-phenyl)-1,3,8-triaza-spiro[4.5]dec-1-ene-8-sulfonyl]-vinyl}-phenyl)-imidazolidine-2,4-dione] | 121% |
| Cc1cc(C(=O)N2CCCC2)ccc1/C=C/S(=O)(=O)N1CCC2(CC1)N=C(c1ccc(F)c(C(F)(F)F)c1)NC2=O [Compound 619, 2-(4-Fluoro-3-trifluoromethyl-phenyl)-8-{(E)-2-[2-methyl-4-(pyrrolidine-1-carbonyl)-phenyl]-ethenesulfonyl}-1,3,8-triaza-spiro[4.5]dec-1-en-4-one] | 61% |
| Cc1cc(N2C(=O)CC[C@@H]2CO)ccc1/C=C/S(=O)(=O)N1CCC2(CC1)N=C(c1ccc(F)c(C(F)(F)F)c1)NC2=O [Compound 620, 2-(4-fluoro-3-trifluoromethyl-phenyl)-8-{(E)-2-[4-((R)-2-hydroxymethyl-5-oxo-pyrrolidin-1-yl)-2-methyl-phenyl]-ethenesulfonyl}-1,3,8-triaza-spiro[4.5]dec-1-en-4-one] | 112% |
| Cc1cc(N2C(=O)CC[C@H]2CO)ccc1/C=C/S(=O)(=O)N1CCC2(CC1)N=C(c1ccc(F)c(C(F)(F)F)c1)NC2=O [Compound 621, 2-(4-fluoro-3-trifluoromethyl-phenyl)-8-{(E)-2-[4-((S)-2-hydroxymethyl-5-oxo-pyrrolidin-1-yl)-2-methyl-phenyl]-ethenesulfonyl}-1,3,8-triaza-spiro[4.5]dec-1-en-4-one] | 80% |
| CCCCCCCCCC1=NC2(CCN(S(=O)(=O)/C=C/c3c(C)cc(OCCC(O)CO)cc3C)CC2)C(=O)N1 (stereo not shown) [Compound 627, 8-{(E)-2-[4-(3,4-Dihydroxy-butoxy)-2,6-dimethyl-phenyl]-ethenesulfonyl}-2-nonyl-1,3,8-triaza-spiro[4.5]dec-1-en-4-one] | 5.3% |

Continued, values first:

| cAMP production activity (%) | SMILES |
| --- | --- |
| 134% | O=C1NC(CCCCCCCCC(F)(F)F)=NC12CCN(S(=O)(=O)/C=C/c1cccc3c1ccn3C[C@H](O)CO)CC2 [Compound 622, 8-{(E)-2-[1-((S)-2,3-Dihydroxy-propyl)-1H-indol-4-yl]-ethenesulfonyl}-2-(9,9,9-trifluoro-nonyl)-1,3,8-triaza-spiro[4.5]dec-1-en-4-one] |
| 123% | O=C1NC(CCCCCCCC(F)(F)C(F)(F)F)=NC12CCN(S(=O)(=O)/C=C/c1cccc3c1ccn3C[C@H](O)CO)CC2 [Compound 623, 8-{(E)-2-[1-((S)-2,3-Dihydroxy-propyl)-1H-indol-4-yl]-ethenesulfonyl}-2-(8,8,9,9,9-pentafluoro-nonyl)-1,3,8-triaza-spiro[4.5]dec-1-en-4-one] |
| 36% | CC[C@H]1CC[C@H](C2=NC3(CCN(S(=O)(=O)/C=C/c4ccc(N5CC(=O)NC5=O)cc4C)CC3)C(=O)N2)CC1 [Compound 624, 1-(4-{(E)-2-[2-(4-Ethyl-cyclohexyl)-4-oxo-1,3,8-triaza-spiro[4.5]dec-1-ene-8-sulfonyl]-vinyl}-3-methyl-phenyl)-imidazolidine-2,4-dione] |
| 47% | CC[C@H]1CC[C@H](C2=NC3(CCN(S(=O)(=O)/C=C/c4ccc(N5C(=O)NC(=O)C5C)cc4C)CC3)C(=O)N2)CC1 (stereo partly shown) [Compound 625, 1-(4-{(E)-2-[2-(4-ethyl-cyclohexyl)-4-oxo-1,3,8-triaza-spiro[4.5]dec-1-ene-8-sulfonyl]-vinyl}-3-methyl-phenyl)-5-methyl-imidazolidine-2,4-dione] |
| 53% | CC[C@H]1CC[C@H](C2=NC3(CCN(S(=O)(=O)/C=C/c4ccc(N5C(=O)NC(=O)C5(C)C)cc4C)CC3)C(=O)N2)CC1 [Compound 626, 1-(4-{(E)-2-[2-(4-ethyl-cyclohexyl)-4-oxo-1,3,8-triaza-spiro[4.5]dec-1-ene-8-sulfonyl]-vinyl}-3-methyl-phenyl)-5,5-dimethyl-imidazolidine-2,4-dione] |
| 48% | CCCCCCCCCC1=NC2(CCN(S(=O)(=O)/C=C/c3c(C)cc(C(=O)O)cc3C)CC2)C(=O)N1 [Compound 628, 3,5-dimethyl-4-[(E)-2-(2-nonyl-4-oxo-1,3,8-triaza-spiro[4.5]dec-1-ene-8-sulfonyl)-vinyl]-benzoic acid] |
| 87% | Cc1cc(C(=O)N(C)N(C)C)cc(C)c1/C=C/S(=O)(=O)N1CCC2(CC1)N=C(C1CCC(CCC(F)(F)F)CC1)NC2=O (stereo not shown) [Compound 629, 3,5-Dimethyl-4-((E)-2-{4-oxo-2-[4-(3,3,3-trifluoro-propyl)-cyclohexyl]-1,3,8-triaza-spiro[4.5]dec-1-ene-8-sulfonyl}-vinyl)-benzoic acid trimethylhydrazide] |
